# Columns and labels:
# [1] = system: Acinetobacter baumannii; assay: Antibacterial activity against intI1-positive tigecycline-resistant Acinetobacter baumannii AB106 with PFGE subgroup B1 containing carbapenemase OXA-23 and OXA-51 by Etest; assay type: functional
# [2] = system: Acinetobacter baumannii; assay: Antibacterial activity against intI1-negative tigecycline-intermediate Acinetobacter baumannii AB098 with PFGE subgroup F containing carbapenemase OXA-23 and OXA-51 by Etest; assay type: functional
# [3] = system: Acinetobacter baumannii; assay: Antibacterial activity against intI1-positive tigecycline-resistant Acinetobacter baumannii AB168 with PFGE subgroup A1 containing carbapenemase OXA-23 and OXA-51 by Etest; assay type: functional
# [4] = system: Acinetobacter baumannii; assay: Antibacterial activity against intI1-positive tigecycline-intermediate Acinetobacter baumannii AB166 with PFGE subgroup A3 containing carbapenemase OXA-51 by Etest; assay type: functional
# [5] = system: Acinetobacter baumannii; assay: Antibacterial activity against intI1-positive tigecycline-resistant Acinetobacter baumannii AB097 with PFGE subgroup B1 containing carbapenemase OXA-23 and OXA-51 by Etest; assay type: functional
# [6] = system: Acinetobacter baumannii; assay: Antibacterial activity against intI1-positive tigecycline-susceptible Acinetobacter baumannii AB110 with PFGE subgroup C containing carbapenemase OXA-51 by Etest; assay type: functional
# [7] = system: Acinetobacter baumannii; assay: Antibacterial activity against intI1-positive tigecycline-susceptible Acinetobacter baumannii AB095 with PFGE subgroup E containing carbapenemase OXA-23 and OXA-51 by Etest; assay type: functional
# [8] = system: Acinetobacter baumannii; assay: Antibacterial activity against intI1-positive tigecycline-intermediate Acinetobacter baumannii AB127 with PFGE subgroup I containing carbapenemase OXA-23 and OXA-51 by Etest; assay type: functional
# [9] = system: Acinetobacter baumannii; assay: Antibacterial activity against intI1-positive tigecycline-resistant Acinetobacter baumannii AB134 with PFGE subgroup A2 containing carbapenemase OXA-23 and OXA-51 by Etest; assay type: functional
# [10] = system: Acinetobacter baumannii; assay: Antibacterial activity against intI1-positive tigecycline-susceptible Acinetobacter baumannii AB039 with PFGE subgroup B1 containing carbapenemase OXA-23 and OXA-51 by Etest; assay type: functional
# [11] = system: Acinetobacter baumannii; assay: Antibacterial activity against intI1-positive tigecycline-resistant Acinetobacter baumannii AB118 with PFGE subgroup B2 containing carbapenemase OXA-23 and OXA-51 by Etest; assay type: functional
# [12] = system: Acinetobacter baumannii; assay: Antibacterial activity against intI1-positive tigecycline-resistant Acinetobacter baumannii AB096 with PFGE subgroup B1 containing carbapenemase OXA-23 and OXA-51 by Etest; assay type: functional
# [13] = system: Acinetobacter baumannii; assay: Antibacterial activity against intI1-positive tigecycline-resistant Acinetobacter baumannii AB125 with PFGE subgroup A1 containing carbapenemase OXA-23 and OXA-51 by Etest; assay type: functional
# [14] = system: Acinetobacter baumannii; assay: Antibacterial activity against intI1-positive tigecycline-resistant Acinetobacter baumannii AB113 with PFGE subgroup B1 containing carbapenemase OXA-23 and OXA-51 by Etest; assay type: functional
# [15] = system: Acinetobacter baumannii; assay: Antibacterial activity against intI1-positive tigecycline-resistant Acinetobacter baumannii AB173 with PFGE subgroup B1 containing carbapenemase OXA-23 and OXA-51 by Etest; assay type: functional
# [16] = system: Acinetobacter baumannii; assay: Antibacterial activity against intI1-positive tigecycline-susceptible Acinetobacter baumannii AB018 with PFGE subgroup G containing carbapenemase OXA-58 and OXA-51 by Etest; assay type: functional
# [17] = system: Acinetobacter baumannii; assay: Antibacterial activity against intI1-positive tigecycline-intermediate Acinetobacter baumannii AB099 with PFGE subgroup H containing carbapenemase OXA-23 and OXA-51 by Etest; assay type: functional
# [18] = system: Acinetobacter baumannii; assay: Antibacterial activity against intI1-positive tigecycline-resistant Acinetobacter baumannii AB173 with PFGE subgroup B1 containing carbapenemase OXA-23 and OXA-51 by Etest in presence of 64 mg/liter 1-(1-naphthylmethyl)-piperazine; assay type: functional
# [19] = system: Acinetobacter baumannii; assay: Antibacterial activity against intI1-positive tigecycline-resistant Acinetobacter baumannii AB113 with PFGE subgroup B1 containing carbapenemase OXA-23 and OXA-51 by Etest in presence of 64 mg/liter 1-(1-naphthylmethyl)-piperazine; assay type: functional
# [20] = system: Acinetobacter baumannii; assay: Antibacterial activity against intI1-positive tigecycline-susceptible Acinetobacter baumannii AB018 with PFGE subgroup G containing carbapenemase OXA-58 and OXA-51 by Etest in presence of 64 mg/liter 1-(1-naphthylmethyl)-piperazine; assay type: functional
# [21] = system: Serum; assay: Steady state drug concentration in human serum; assay type: ADME, cell-free
# [22] = system: Acinetobacter baumannii; assay: Antibacterial activity against intI1-positive tigecycline-resistant Acinetobacter baumannii AB096 with PFGE subgroup B1 containing carbapenemase OXA-23 and OXA-51 by Etest in presence of 64 mg/liter 1-(1-naphthylmethyl)-piperazine; assay type: functional
# [23] = system: Acinetobacter baumannii; assay: Antibacterial activity against intI1-positive tigecycline-resistant Acinetobacter baumannii AB125 with PFGE subgroup A1 containing carbapenemase OXA-23 and OXA-51 by Etest in presence of 64 mg/liter 1-(1-naphthylmethyl)-piperazine; assay type: functional
# [24] = system: Acinetobacter baumannii; assay: Antibacterial activity against intI1-positive tigecycline-resistant Acinetobacter baumannii AB106 with PFGE subgroup B1 containing carbapenemase OXA-23 and OXA-51 by Etest in presence of 64 mg/liter 1-(1-naphthylmethyl)-piperazine; assay type: functional
# [25] = system: Acinetobacter baumannii; assay: Antibacterial activity against Multidrug-resistant Acinetobacter baumannii by broth microdilution method; assay type: functional
# [26] = system: Acinetobacter baumannii; assay: Antibacterial activity against intI1-positive tigecycline-intermediate Acinetobacter baumannii AB166 with PFGE subgroup A3 containing carbapenemase OXA-51 by Etest in presence of 64 mg/liter 1-(1-naphthylmethyl)-piperazine; assay type: functional
# [27] = system: Acinetobacter baumannii; assay: Antibacterial activity against intI1-negative tigecycline-intermediate Acinetobacter baumannii AB098 with PFGE subgroup F containing carbapenemase OXA-23 and OXA-51 by Etest in presence of 64 mg/liter 1-(1-naphthylmethyl)-piperazine; assay type: functional
# [28] = system: Acinetobacter baumannii; assay: Antibacterial activity against intI1-positive tigecycline-intermediate Acinetobacter baumannii AB127 with PFGE subgroup I containing carbapenemase OXA-23 and OXA-51 by Etest in presence of 64 mg/liter 1-(1-naphthylmethyl)-piperazine; assay type: functional
# [29] = system: Acinetobacter baumannii; assay: Antibacterial activity against intI1-positive tigecycline-susceptible Acinetobacter baumannii AB095 with PFGE subgroup E containing carbapenemase OXA-23 and OXA-51 by Etest in presence of 64 mg/liter 1-(1-naphthylmethyl)-piperazine; assay type: functional
# [30] = system: Acinetobacter baumannii; assay: Antibacterial activity against intI1-positive tigecycline-susceptible Acinetobacter baumannii AB110 with PFGE subgroup C containing carbapenemase OXA-51 by Etest in presence of 64 mg/liter 1-(1-naphthylmethyl)-piperazine; assay type: functional
# [31] = system: Acinetobacter baumannii; assay: Antibacterial activity against intI1-positive tigecycline-resistant Acinetobacter baumannii AB097 with PFGE subgroup B1 containing carbapenemase OXA-23 and OXA-51 by Etest in presence of 64 mg/liter 1-(1-naphthylmethyl)-piperazine; assay type: functional
# [32] = system: Acinetobacter baumannii; assay: Antibacterial activity against intI1-positive tigecycline-susceptible Acinetobacter baumannii AB039 with PFGE subgroup B1 containing carbapenemase OXA-23 and OXA-51 by Etest in presence of 64 mg/liter 1-(1-naphthylmethyl)-piperazine; assay type: functional
# [33] = system: Acinetobacter baumannii; assay: Antibacterial activity against intI1-positive tigecycline-resistant Acinetobacter baumannii AB134 with PFGE subgroup A2 containing carbapenemase OXA-23 and OXA-51 by Etest in presence of 64 mg/liter 1-(1-naphthylmethyl)-piperazine; assay type: functional
# [34] = system: Acinetobacter baumannii; assay: Antibacterial activity against intI1-positive tigecycline-resistant Acinetobacter baumannii AB168 with PFGE subgroup A1 containing carbapenemase OXA-23 and OXA-51 by Etest in presence of 64 mg/liter 1-(1-naphthylmethyl)-piperazine; assay type: functional
# [35] = system: Acinetobacter baumannii; assay: Antibacterial activity against intI1-positive tigecycline-intermediate Acinetobacter baumannii AB099 with PFGE subgroup H containing carbapenemase OXA-23 and OXA-51 by Etest in presence of 64 mg/liter 1-(1-naphthylmethyl)-piperazine; assay type: functional
# [36] = system: Acinetobacter baumannii; assay: Antibacterial activity against intI1-positive tigecycline-resistant Acinetobacter baumannii AB118 with PFGE subgroup B2 containing carbapenemase OXA-23 and OXA-51 by Etest in presence of 64 mg/liter 1-(1-naphthylmethyl)-piperazine; assay type: functional
# [37] = system: Acinetobacter baumannii; assay: Antibacterial activity against Multidrug-resistant Acinetobacter baumannii clinical isolate by broth microdilution method; assay type: functional
structure (smiles),measurement,setting,value
C[C@@H](O)[C@H]1C(=O)N2C(C(=O)O)=C(SCCNC=N)C[C@H]12 [IMIPENEM ANHYDROUS],MIC,[1],> 32 µg/mL
same,MIC,[2],> 32 µg/mL
same,MIC,[3],> 32 µg/mL
same,MIC,[4],6 µg/mL
same,MIC,[5],> 32 µg/mL
same,MIC,[6],1.5 µg/mL
same,MIC,[7],32 µg/mL
same,MIC,[8],32 µg/mL
same,MIC,[9],> 32 µg/mL
same,MIC,[10],> 32 µg/mL
same,MIC,[11],> 32 µg/mL
same,MIC,[12],> 32 µg/mL
same,MIC,[13],> 32 µg/mL
same,MIC,[14],32 µg/mL
same,MIC,[15],32 µg/mL
same,MIC,[16],8 µg/mL
same,MIC,[17],> 32 µg/mL
C[C@H]1COc2c(N3CCN(C)CC3)c(F)cc3c(=O)c(C(=O)O)cn1c23.C[C@H]1COc2c(N3CCN(C)CC3)c(F)cc3c(=O)c(C(=O)O)cn1c23.O [LEVOFLOXACIN],MIC,[1],32 µg/mL
same,MIC,[2],> 32 µg/mL
same,MIC,[3],> 32 µg/mL
same,MIC,[4],> 32 µg/mL
same,MIC,[5],> 32 µg/mL
same,MIC,[6],12 µg/mL
same,MIC,[7],> 32 µg/mL
same,MIC,[8],> 32 µg/mL
same,MIC,[9],> 32 µg/mL
same,MIC,[11],> 32 µg/mL
same,MIC,[12],> 32 µg/mL
same,MIC,[13],> 32 µg/mL
same,MIC,[14],> 32 µg/mL
same,MIC,[15],> 32 µg/mL
same,MIC,[16],6 µg/mL
same,MIC,[17],> 32 µg/mL
CCN1CCN(C(=O)N[C@@H](C(=O)N[C@@H]2C(=O)N3[C@@H]2SC(C)(C)[C@@H]3C(=O)O)c2ccccc2)C(=O)C1=O [PIPERACILLIN],MIC,[1],> 128 µg/mL
same,MIC,[2],> 128 µg/mL
same,MIC,[3],> 128 µg/mL
same,MIC,[4],> 128 µg/mL
same,MIC,[5],> 128 µg/mL
same,MIC,[6],> 128 µg/mL
same,MIC,[7],> 128 µg/mL
same,MIC,[8],> 128 µg/mL
same,MIC,[9],> 128 µg/mL
same,MIC,[10],> 128 µg/mL
same,MIC,[11],> 128 µg/mL
same,MIC,[12],> 128 µg/mL
same,MIC,[13],> 128 µg/mL
same,MIC,[14],> 128 µg/mL
same,MIC,[15],> 128 µg/mL
same,MIC,[16],> 128 µg/mL
same,MIC,[17],> 128 µg/mL
C[C@]1(Cn2ccnn2)[C@H](C(=O)O)N2C(=O)C[C@H]2S1(=O)=O [TAZOBACTAM],MIC,[1],4 µg/mL
same,MIC,[2],4 µg/mL
same,MIC,[3],4 µg/mL
same,MIC,[4],4 µg/mL
same,MIC,[5],4 µg/mL
same,MIC,[6],4 µg/mL
same,MIC,[7],4 µg/mL
same,MIC,[8],4 µg/mL
same,MIC,[9],4 µg/mL
same,MIC,[10],4 µg/mL
same,MIC,[11],4 µg/mL
same,MIC,[12],4 µg/mL
same,MIC,[13],4 µg/mL
same,MIC,[14],4 µg/mL
same,MIC,[15],4 µg/mL
same,MIC,[16],4 µg/mL
same,MIC,[17],4 µg/mL
CN(C)c1cc(NC(=O)CNC(C)(C)C)c(O)c2c1C[C@H]1C[C@H]3[C@H](N(C)C)C(O)=C(C(N)=O)C(=O)[C@@]3(O)C(O)=C1C2=O [TIGECYCLINE],MIC,[18],4 µg/mL
same,MIC,[1],8 µg/mL
same,MIC,[19],4 µg/mL
same,MIC,[2],6 µg/mL
same,MIC,[3],8 µg/mL
same,MIC,[4],4 µg/mL
same,MIC,[20],2 µg/mL
same,MIC,[5],12 µg/mL
same,MIC,[6],2 µg/mL
same,Css,[21],0.63 mg/L
same,MIC,[22],8 µg/mL
same,MIC,[23],8 µg/mL
same,MIC,[7],2 µg/mL
same,MIC,[8],4 µg/mL
same,MIC,[9],8 µg/mL
same,MIC,[10],2 µg/mL
same,MIC,[24],6 µg/mL
same,MIC,[11],8 µg/mL
same,MIC50,[25],2 µg/mL
same,MIC90,[25],4 µg/mL
same,MIC,[12],16 µg/mL
same,MIC,[26],4 µg/mL
same,MIC,[27],4 µg/mL
same,MIC,[28],4 µg/mL
same,MIC,[29],3 µg/mL
same,MIC,[30],4 µg/mL
same,MIC,[31],4 µg/mL
same,MIC,[13],8 µg/mL
same,MIC,[32],4 µg/mL
same,MIC,[33],3 µg/mL
same,MIC,[14],8 µg/mL
same,MIC,[34],4 µg/mL
same,MIC,[35],4 µg/mL
same,MIC,[36],6 µg/mL
same,MIC,[15],8 µg/mL
same,MIC50,[37],16 µg/mL
same,MIC90,[37],32 µg/mL
same,MIC,[16],2 µg/mL
same,MIC,[17],6 µg/mL

# — ChEMBL document CHEMBL1671742, “Overexpression of the adeB gene in clinical isolates of tigecycline-nonsusceptible Acinetobacter baumannii without insertion mutations in adeRS” (Antimicrob Agents Chemother, 2010)
